According to patent US20090018111A1, “Novel Antimicrobial Medicament” (priority 2004, published 2009):
Where two headings read alike, the source gives them in different places.

What was measured:
Experiment in all cases: Sensitivity test (agar dilution)
E. aerogenes ATCC13048 = assay type: cell-based, Enterobacter aerogenes; conditions: Klebsiella aerogenes, E. aerogenes ATCC13048
Protocol: (§1) The antibacterial activities were tested against various 18 bacteria (27 standard strains) which are representative bacteria caused clinically infectious disease (Staphylococcus aureus 3 strains, Staphylococcus epidermidis 1 strain, Micrococcus luteus 1 strain, Streptococcus pyogenes 1 strain, Enterococcus faecalis 1 strain, Enterococcus faecium 1 strain, Bacillus subtilis 1 strain, Escherichia coli 3 strains, Klebsiella pneumoniae 1 strain, Proteus mirabilis 1 strain, Proteus vulgaris 2 strains, Pseudomonas aeruginosa 3 strains, Serratia marcescens 2 strains, Enterobacter aerogenes 1 strain, Stenotrophomonas maltophilia 1 strain, Enterobacter cloacae 1 strain, Citrobacter freundii 1 strain, Moraxella catarrhalis 2 strains).
(§2) According to the standard method of Japan Chemotherapeutic Society (Chemotherapy, vol. […], p 76-79 (1981)) the test was carried out using the agar dilution method. After dissolving test samples in distilled water, agar medium containing the test samples was prepared in such a manner that the final concentration became twice serial dilution by pouring serially diluted combination drug solution or a single drug solution into agar medium. As agar medium was used Mueller Hinton Agar medium (MHA). Then, each strain was cultivated over night at 37° C. in an incubator and suspended in buffered saline solution with gelatin (BSG) in the concentration of about 10^6 CFU/ml. The suspension (about 5 μl) containing test strains was inoculated to the medium containing the test samples by Micro Planter.
(§3) When the sample is subjected to sensitivity test, this mixed solution was diluted by twice serial dilution method.
(§4) Furthermore, when the drug is solely used, each test sample was used as it is, and diluted by twice serial dilution method from the maximum concentration to the minimum concentration.
(§5) FIC index based on MIC value was calculated. […] Namely, when FIC index calculated by the following formula is equal or less than 1, the enhanced effect of the combination drug in said ratio is considered as positive. When FIC index is over 1, the enhanced effect of the combination drug in said ratio is considered as negative.
(§6) Formula of FIC index: FIC index=(MIC of Drug A in combination/MIC of Drug A alone)+(MIC of Drug B in combination/MIC of Drug B alone) N.C. in tables means being not calculated.

S. epidermidis IAM1296 = assay type: cell-based, Staphylococcus epidermidis; conditions: Staphylococcus epidermidis, S. epidermidis IAM1296
Protocol: as §1, §2, §3, §4, §5, §6

E. coli ML1410 = assay type: cell-based, Escherichia coli; conditions: Escherichia coli, E. coli ML1410
Protocol: as §1, §2, §3, §4, §5, §6

E. coli NIHJ JC-2 = assay type: cell-based, Escherichia coli; conditions: Escherichia coli, E. coli NIHJ JC-2
Protocol: as §1, §2, §3, §4, §5, §6

E. faecium ATCC19434 = assay type: cell-based, Enterococcus faecium; conditions: Enterococcus faecium, E. faecium ATCC19434
Protocol: as §1, §2, §3, §4, §5, §6

P. aeruginosa IFO3451 = assay type: cell-based, Pseudomonas aeruginosa; conditions: Pseudomonas aeruginosa, P. aeruginosa IFO3451
Summary of the method: (§7)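 Standard Japanese agar dilution method. Drugs alone or combined were serially halved in Mueller Hinton agar, inoculated with overnight (37° C) cultures at about 10^6 CFU/ml. Values are MICs.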

P. aeruginosa TL-2666 = assay type: cell-based, Pseudomonas aeruginosa; conditions: Pseudomonas aeruginosa, P. aeruginosa TL-2666
Summary of the method: as §7

K. pneumoniae ATCC10031 = assay type: cell-based, Klebsiella pneumoniae; conditions: Klebsiella pneumoniae, K. pneumoniae ATCC10031
Protocol: as §1, §2, §3, §4, §5, §6

B. subtilis ATCC6633 = assay type: cell-based, Bacillus subtilis; conditions: Bacillus subtilis, B. subtilis ATCC6633
Protocol: as §1, §2, §3, §4, §5, §6

P. mirabiris GN2425 = assay type: cell-based, Proteus mirabilis; conditions: Proteus mirabilis, P. mirabiris GN2425
Protocol: as §1, §2, §3, §4, §5, §6

M. catarrhalis ATCC8176 = assay type: cell-based, Moraxella catarrhalis; conditions: Moraxella catarrhalis, M. catarrhalis ATCC8176
Protocol: as §1, §2, §3, §4, §5, §6

M. catarrhalis ATCC25238 = assay type: cell-based, Moraxella catarrhalis; conditions: Moraxella catarrhalis, M. catarrhalis ATCC25238
Protocol: as §1, §2, §3, §4, §5, §6

S. maltophilia IID1275 = assay type: cell-based, Stenotrophomonas maltophilia; conditions: Stenotrophomonas maltophilia, S. maltophilia IID1275
Protocol: as §1, §2, §3, §4, §5, §6

[1] = ATCC13048, drug alone, read-out: MIC alone
[2] = IAM1296, drug alone, read-out: MIC alone
[3] = ML1410, drug alone, read-out: MIC alone
[4] = NIHJJC2, drug alone, read-out: MIC alone
[5] = ATCC19434, drug alone, read-out: MIC alone
[6] = IFO3451, drug alone, read-out: MIC alone
[7] = TL2666, drug alone, read-out: MIC alone
[8] = ATCC10031, drug alone, read-out: MIC alone
[9] = ATCC6633, drug alone, read-out: MIC alone
[10] = GN2425, drug alone, read-out: MIC alone
[11] = ATCC8176, drug alone, read-out: MIC alone
[12] = ATCC25238, drug alone, read-out: MIC alone
[13] = IID1275, drug alone, read-out: MIC alone

| SMILES | MIC (E. aerogenes ATCC13048; [1]) [µg/mL] | MIC (S. epidermidis IAM1296; [2]) [µg/mL] | MIC (E. coli ML1410; [3]) [µg/mL] | MIC (E. coli NIHJ JC-2; [4]) [µg/mL] | MIC (E. faecium ATCC19434; [5]) [µg/mL] | MIC (P. aeruginosa IFO3451; [6]) [µg/mL] | MIC (P. aeruginosa TL-2666; [7]) [µg/mL] | MIC (K. pneumoniae ATCC10031; [8]) [µg/mL] | MIC (B. subtilis ATCC6633; [9]) [µg/mL] | MIC (P. mirabiris GN2425; [10]) [µg/mL] | MIC (M. catarrhalis ATCC8176; [11]) [µg/mL] | MIC (M. catarrhalis ATCC25238; [12]) [µg/mL] | MIC (S. maltophilia IID1275; [13]) [µg/mL] | also measured |
| --- | --- | --- | --- | --- | --- | --- | --- | --- | --- | --- | --- | --- | --- | --- |
| C[C@H]1[C@H](NC(=O)/C(=N\OC(C)(C)C(=O)O)c2csc(N)n2)C(=O)N1S(=O)(=O)O [AZT, aztreonam] | 0.063 | > 32 | 0.125 | 0.063 | > 32 | 2 | 2 | 0.004 | > 32 | 0.004 | 0.25 | 0.125 | > 32 | MIC (E. aerogenes ATCC13048; ATCC13048, Concomitant (AZT:SM = 1:1), read-out: MIC concomitant): 8 µg/mL; MIC (S. epidermidis IAM1296; IAM1296, Concomitant (AZT:SM = 1:1), read-out: MIC concomitant): 0.031 µg/mL; MIC (E. coli ML1410; ML1410, Concomitant (AZT:SM = 1:1), read-out: MIC concomitant): 0.063 µg/mL; MIC (E. coli NIHJ JC-2; NIHJJC2, Concomitant (AZT:SM = 1:1), read-out: MIC concomitant): 0.063 µg/mL; MIC (E. faecium ATCC19434; ATCC19434, Concomitant (AZT:SM = 1:1), read-out: MIC concomitant): 0.125 µg/mL; MIC (P. aeruginosa IFO3451; IFO3451, Concomitant (AZT:SM = 1:1), read-out: MIC concomitant): 2 µg/mL; MIC (P. aeruginosa TL-2666; TL2666, Concomitant (AZT:SM = 1:1), read-out: MIC concomitant): 8 µg/mL; MIC (K. pneumoniae ATCC10031; ATCC10031, Concomitant (AZT:SM = 1:1), read-out: MIC concomitant): 0.004 µg/mL; MIC (B. subtilis ATCC6633; ATCC6633, Concomitant (AZT:SM = 1:1), read-out: MIC concomitant): ≤ 0.002 µg/mL; MIC (P. mirabiris GN2425; GN2425, Concomitant (AZT:SM = 1:1), read-out: MIC concomitant): 0.004 µg/mL; MIC (M. catarrhalis ATCC8176; ATCC8176, Concomitant (AZT:SM = 1:1), read-out: MIC concomitant): ≤ 0.002 µg/mL; MIC (M. catarrhalis ATCC25238; ATCC25238, Concomitant (AZT:SM = 1:1), read-out: MIC concomitant): ≤ 0.002 µg/mL; MIC (S. maltophilia IID1275; IID1275, Concomitant (AZT:SM = 1:1), read-out: MIC concomitant): > 32 µg/mL |
| C[C@@H](O)[C@H]1C(=O)N2C(C(=O)[O-])=C(SC3Cn4cnc[n+]4C3)[C@H](C)[C@H]12 (stereo partly drawn) [BIPM, biapenem] | 0.125 | 1 | 0.25 | 0.031 | 16 | 0.25 | 1 | 0.031 | 0.031 | 0.25 | 0.031 | 0.016 | > 32 | MIC (E. aerogenes ATCC13048; ATCC13048, Concomitant (BIPM:SM = 1:1), read-out: MIC concomitant): 0.063 µg/mL; MIC (S. epidermidis IAM1296; IAM1296, Concomitant (BIPM:SM = 1:1), read-out: MIC concomitant): 0.031 µg/mL; MIC (E. coli ML1410; ML1410, Concomitant (BIPM:SM = 1:1), read-out: MIC concomitant): 0.063 µg/mL; MIC (E. coli NIHJ JC-2; NIHJJC2, Concomitant (BIPM:SM = 1:1), read-out: MIC concomitant): 0.031 µg/mL; MIC (E. faecium ATCC19434; ATCC19434, Concomitant (BIPM:SM = 1:1), read-out: MIC concomitant): 0.25 µg/mL; MIC (P. aeruginosa IFO3451; IFO3451, Concomitant (BIPM:SM = 1:1), read-out: MIC concomitant): 0.25 µg/mL; MIC (P. aeruginosa TL-2666; TL2666, Concomitant (BIPM:SM = 1:1), read-out: MIC concomitant): 1 µg/mL; MIC (K. pneumoniae ATCC10031; ATCC10031, Concomitant (BIPM:SM = 1:1), read-out: MIC concomitant): 0.016 µg/mL; MIC (B. subtilis ATCC6633; ATCC6633, Concomitant (BIPM:SM = 1:1), read-out: MIC concomitant): ≤ 0.002 µg/mL; MIC (P. mirabiris GN2425; GN2425, Concomitant (BIPM:SM = 1:1), read-out: MIC concomitant): 0.125 µg/mL; MIC (M. catarrhalis ATCC8176; ATCC8176, Concomitant (BIPM:SM = 1:1), read-out: MIC concomitant): ≤ 0.002 µg/mL; MIC (M. catarrhalis ATCC25238; ATCC25238, Concomitant (BIPM:SM = 1:1), read-out: MIC concomitant): ≤ 0.002 µg/mL; MIC (S. maltophilia IID1275; IID1275, Concomitant (BIPM:SM = 1:1), read-out: MIC concomitant): > 32 µg/mL |
| CC(C)(O/N=C(\C(=O)N[C@@H]1C(=O)N2C(C(=O)[O-])=C(C[n+]3ccccc3)CS[C@H]12)c1csc(N)n1)C(=O)O [CAZ, ceftazidime] | 0.5 | > 32 | 0.25 | 0.25 | > 32 | 1 | 0.5 | 0.031 | 2 | 0.063 | 0.016 | 0.016 | > 32 | MIC (E. aerogenes ATCC13048; ATCC13048, Concomitant (CAZ:SM = 1:1), read-out: MIC concomitant): 8 µg/mL; MIC (S. epidermidis IAM1296; IAM1296, Concomitant (CAZ:SM = 1:1), read-out: MIC concomitant): 0.031 µg/mL; MIC (E. coli ML1410; ML1410, Concomitant (CAZ:SM = 1:1), read-out: MIC concomitant): 0.063 µg/mL; MIC (E. coli NIHJ JC-2; NIHJJC2, Concomitant (CAZ:SM = 1:1), read-out: MIC concomitant): 0.063 µg/mL; MIC (E. faecium ATCC19434; ATCC19434, Concomitant (CAZ:SM = 1:1), read-out: MIC concomitant): 0.125 µg/mL; MIC (P. aeruginosa IFO3451; IFO3451, Concomitant (CAZ:SM = 1:1), read-out: MIC concomitant): 2 µg/mL; MIC (P. aeruginosa TL-2666; TL2666, Concomitant (CAZ:SM = 1:1), read-out: MIC concomitant): 8 µg/mL; MIC (K. pneumoniae ATCC10031; ATCC10031, Concomitant (CAZ:SM = 1:1), read-out: MIC concomitant): 0.008 µg/mL; MIC (B. subtilis ATCC6633; ATCC6633, Concomitant (CAZ:SM = 1:1), read-out: MIC concomitant): ≤ 0.002 µg/mL; MIC (P. mirabiris GN2425; GN2425, Concomitant (CAZ:SM = 1:1), read-out: MIC concomitant): 0.031 µg/mL; MIC (M. catarrhalis ATCC8176; ATCC8176, Concomitant (CAZ:SM = 1:1), read-out: MIC concomitant): ≤ 0.002 µg/mL; MIC (M. catarrhalis ATCC25238; ATCC25238, Concomitant (CAZ:SM = 1:1), read-out: MIC concomitant): ≤ 0.002 µg/mL; MIC (S. maltophilia IID1275; IID1275, Concomitant (CAZ:SM = 1:1), read-out: MIC concomitant): > 32 µg/mL |
